Data on 29 compounds can be found in PubChem BioAssay AID651879 (NMMLSC, 2012).

Structures are written as SMILES. Active and inactive are the calls of the source. No rule for the calls is given here.

The assay addresses Botulinum neurotoxin type A light chain protease (Clostridium botulinum A str. ATCC 3502). Briefly: Botulinum neurotoxin type A light chain protease inhibitors, multiplex microsphere dose response, confirmatory (AID 651879). The settings on record: multiplex microsphere protease cleavage assay, flow cytometry. In general terms: A flow cytometer gives signals particle by particle.
`CSc1ccc(C2=NN(c3ccc(S(N)(=O)=O)cc3)C(c3ccccc3)C2)cc1` (centres undefined): the EC50 (as a rule, the midpoint of the concentration-response curve) was > 20 µM (inactive).

On to `CSc1ccc(C2=NN(c3ccc([N+](=O)[O-])cc3)C(c3ccccc3)C2)cc1` (centres undefined), for which the EC50 was 0.5 µM.

On to `COc1ccc(N2N=C(c3cccnc3)CC2c2ccccc2)cc1` (centres undefined), for which the EC50 was > 20 µM (inactive).

For `CC(C)NC(=O)c1ccc(N2N=C(c3ccccc3)CC2c2ccccc2)cc1` (centres undefined), the EC50 is > 20 µM (inactive).

For `CSc1ccc(C2=NN(c3ccc(C(=O)N4CCCCC4)cc3)C(c3ccccc3)C2)cc1` (centres undefined), the EC50 is > 20 µM (inactive).

With `CS(=O)(=O)c1ccc(N2N=C(c3ccncc3)CC2c2ccccc2)cc1` (centres undefined), the EC50 was > 20 µM (inactive).

With `CNC(=O)c1ccc(N2N=C(c3ccccc3)CC2c2ccccc2)cc1` (centres undefined), the EC50 was > 20 µM (inactive).

`NS(=O)(=O)c1ccc(N2N=C(c3ccncc3)CC2c2ccccc2)cc1` (centres undefined): the EC50 was > 20 µM (inactive).

Consider `COc1ccc(N2N=C(c3ccncc3)CC2c2ccccc2)cc1` (centres undefined), for which the EC50 was > 20 µM (inactive).

With `COc1ccc(N2N=C(c3ccc(SC)cc3)CC2c2ccccc2)cc1` (centres undefined), the EC50 is > 20 µM (inactive).

In the case of `c1ccc(C2CC(c3ccncc3)=NN2c2ccccc2)cc1` (centres undefined), the EC50 is > 20 µM (inactive).

As for `O=C(c1ccc(N2N=C(c3ccccc3)CC2c2ccccc2)cc1)N1CCOCC1` (centres undefined), the EC50 was > 20 µM (inactive).

Take `CS(=O)(=O)c1ccc(N2N=C(c3ccccc3)CC2c2ccccc2)cc1` (centres undefined): the EC50 is > 20 µM (inactive).

On to `COc1ccc(N2N=C(c3ccccn3)CC2c2ccccc2)cc1` (centres undefined), for which the EC50 was > 20 µM (inactive).

`O=[N+]([O-])c1ccc(N2N=C(c3ccccc3)CC2c2ccccc2)cc1` (centres undefined): the EC50 is > 20 µM (inactive).

As for `COc1ccc(N2N=C(c3ccccc3)CC2c2ccccc2)cc1` (centres undefined), the EC50 was > 20 µM (inactive).

On to `NS(=O)(=O)c1ccc(N2N=C(c3ccccc3)CC2c2ccccc2)cc1` (centres undefined), for which the EC50 was > 20 µM (inactive).

Consider `O=C(c1ccc(N2N=C(c3ccccc3)CC2c2ccccc2)cc1)N1CCCCC1` (centres undefined), for which the EC50 is > 20 µM (inactive).

Regarding `c1ccc(C2=NN(c3ccccc3)C(c3ccccc3)C2)cc1` (centres undefined), the EC50 was > 20 µM (inactive).

As to `CSc1ccc(C2=NN(c3ccccc3)C(c3ccccc3)C2)cc1` (centres undefined), the EC50 is > 20 µM (inactive).

Regarding `CNC(=O)c1ccc(N2N=C(c3ccc(SC)cc3)CC2c2ccccc2)cc1` (centres undefined), the EC50 is > 20 µM (inactive).

`c1ccc(C2CC(c3cccnc3)=NN2c2ccccc2)cc1` (centres undefined): the EC50 is > 20 µM (inactive).

As for `CSc1ccc(C2=NN(c3ccc(C(=O)N4CCOCC4)cc3)C(c3ccccc3)C2)cc1` (centres undefined), the EC50 is > 20 µM (inactive).

As to `CS(=O)(=O)c1ccc(N2N=C(c3cccnc3)CC2c2ccccc2)cc1` (centres undefined), the EC50 was > 20 µM (inactive).

For `c1ccc(-c2cc(-c3ccccc3)n(-c3ccccc3)n2)cc1`, the EC50 was > 20 µM (inactive).

`CC(C)CNC(=O)c1ccc(N2N=C(c3ccccc3)CC2c2ccccc2)cc1` (centres undefined): the EC50 is > 20 µM (inactive).

Consider `c1ccc(C2CC(c3ccccn3)=NN2c2ccccc2)cc1` (centres undefined), for which the EC50 was > 20 µM (inactive).

As to `NS(=O)(=O)c1ccc(N2N=C(c3cccnc3)CC2c2ccccc2)cc1` (centres undefined), the EC50 is > 20 µM (inactive).

Take `CSc1ccc(C2=NN(c3ccc(S(C)(=O)=O)cc3)C(c3ccccc3)C2)cc1` (centres undefined): the EC50 is > 20 µM (inactive).
